The values below are quoted from earlier work in US20050048573A1, “PDE5A crystal structure and uses” (Plexxikon, Inc., priority 2003, published 2005).

What is called Kd is a measure of binding affinity in units of concentration.

The target in this series is PDE5 (Bos taurus, UniProt Q28156). To be noted: allosteric sites; read-out: KD of PDE5 for binding cGMP in the allosteric sites.

For the molecule `Nc1nc2c(ncn2[C@@H]2O[C@@H]3COP(=O)(O)O[C@H]3[C@H]2O)c(=O)[nH]1` [cGMP], the Kd was ~200 nM.
